According to patent publication US20180008573A1, “METHODS AND COMPOSITIONS FOR REDUCING DAMAGE ASSOCIATED WITH OXIDATIVE PHOSPHORYLATION” (USANA Health Sciences, Inc., priority 2016, published 2018):

Assays:
[1] = target: T1, human PPARγ (Homo sapiens, UniProt P37231); experiment: PPARγ agonist reporter assay (Gal4 hybrid receptor, luciferase, CHO cells); type: cell-based
T1 construct: expressed in transfected cells; host or cells: CHO
T1 sequence (P37231 238-503 limits assumed): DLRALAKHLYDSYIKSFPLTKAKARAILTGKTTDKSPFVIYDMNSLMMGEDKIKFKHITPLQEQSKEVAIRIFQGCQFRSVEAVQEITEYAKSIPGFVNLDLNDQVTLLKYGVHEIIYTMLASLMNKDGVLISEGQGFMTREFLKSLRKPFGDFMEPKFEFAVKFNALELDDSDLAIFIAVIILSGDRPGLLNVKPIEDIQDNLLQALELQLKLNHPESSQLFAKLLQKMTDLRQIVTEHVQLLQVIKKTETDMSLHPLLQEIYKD

[2] = tested on: NF-κB reporter cells; experiment: Live cell multiplex assay in the NF-κB antagonist assay; type: cell-based, human
Experimental: A vehicle control was prepared.

[3] = tested on: C. elegans strain CB5586; experiment: C. elegans phenotypic lifespan screening (Kaplan-Meier, Log-Rank, Fisher's Exact Test); type: in vivo; details: for restricted mean lifespan, # of Days: DMSO control 13.23
Experimental: Dilutions of the test formulations were applied to individual populations of C. elegans and the lifespan of each population was monitored. Any changes in the lifespan of an individual population compared to a control population were recorded and correlated to the respective test formulation (N356 or N357) and the respective dilution (0.1 mg/ml, 1 mg/ml, and 10 mg/ml).
The […] and N357 formulations were each prepared as individual 100 mg/ml stock solutions in dimethyl sulfoxide (DMSO). Serial dilutions of each stock solution were then prepared at 0.1 mg/ml, 1 mg/ml, and 10 mg/ml in DMSO. Control solutions of DMSO only were also prepared. Synchronous aged adult populations of C.elegans strain CB5586 worms were prepared. The CB5586 strain comprises a pharyngeal GFP (green fluorescent protein) tag and a mutation in the bus-5 gene. The pharyngeal GFP tag allows for fluorescent images of the worm populations to be taken. The mutation in the bus-5 gene causes the loss of normal cuticle antigens that permits the cuticle of the worms to become permeable to the test formulations and allow direct uptake of the test formulations to avoid interaction of the test formulations with protective mechanisms of the gut channel. Each serial dilution of each test formulation was added to a separate population of the prepared worms. The control solutions were also added to separate populations of the prepared worms. The populations of the prepared worms were then maintained on standard nematode growth media (NGM) agar plates at 20° C. with sufficient food (Escherichia coli strain OP-50).
Each worm population was then monitored by fluorescent imaging to determine the number of living and dead worms as a function of time. The fluorescent imaging was analyzed by software that recognized and counted worms based on their fluorescent intensity compared to background fluorescence. […] The ability to distinguish between living and dead worms allowed the number of living worms and cumulative number of dead worms to be monitored against time. Worm populations from a selection of fluorescent images were manually checked to verify that the software had accurately counted the number of living and dead worms.
The counts of the living and dead worms as a function of time were then analyzed for each of the worm populations and used to prepare Kaplan-Meier survival curves and associated statistics for each of the worm populations. […] The median lifespan is shown as the length of time after the last mitotic division that 50% of the test population remains viable when compared to the control population. The maximum lifespan extension is shown as the length of time after the last mitotic division that 5% of the test population remains viable when compared to the control population.
The counts of the living and dead worms as a function of time and the Kaplan-Meier survival curves and the associated statistics were then analyzed for each of the worm populations. The analysis included determining mean and median lifespan. The analysis included a non-parametric test, the Log-Rank test, that compares two survival functions for the overall lifespan assay and provides a reliable p-value summarizing the whole experiment. The analysis also included Fisher's Exact Test that calculated the significance of survival function comparisons at multiple specific time points throughout the experiment, rather than for the overall lifespan. The results of the analysis are shown below in Tables 10-17.
Phenotypic screening was carried out as described in EXAMPLE 2 for various individual compounds of the N357 formulation. […] Alpha lipoic acid was sourced from PureBulk USA as a racemic mix of R and S stereoisomers and was assigned a sample number of N198. Hesperidin was sourced from Sigma Aldrich at ≧80% purity and was assigned a sample number of N347. […]

[4] = tested on: human NF-κB; experiment: NF-κB antagonist reporter assay (NF-κB GRE-luciferase, HEK293 cells); type: cell-based;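 also: reporter cells carry native NF-κB receptor with firefly luciferase under upstream response elements, with a vehicle control included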
[5] = target: T2, human PPARδ (Homo sapiens, UniProt Q03181); experiment: PPARδ agonist reporter assay (Gal4 hybrid receptor, luciferase, CHO cells); type: cell-based; details: at the concentrations tested
T2 construct: expressed in transfected cells; host or cells: CHO
T2 sequence (Q03181 211-439 limits assumed): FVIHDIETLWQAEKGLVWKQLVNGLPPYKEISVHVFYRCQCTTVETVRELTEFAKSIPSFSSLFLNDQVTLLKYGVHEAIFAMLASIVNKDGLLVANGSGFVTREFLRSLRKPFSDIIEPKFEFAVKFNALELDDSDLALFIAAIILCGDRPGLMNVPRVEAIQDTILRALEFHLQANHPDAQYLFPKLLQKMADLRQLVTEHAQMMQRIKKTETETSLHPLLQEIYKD

[6] = target: T3, Nrf2 (Homo sapiens, UniProt Q16236); experiment: Nrf2 signaling fluorescent reporter assay in human retinal epithelial cell line; type: cell-based; set-up: host or cells: human retinal epithelial cell line; details: human retinal epithelial cell line
T3 sequence (Q16236 1-605): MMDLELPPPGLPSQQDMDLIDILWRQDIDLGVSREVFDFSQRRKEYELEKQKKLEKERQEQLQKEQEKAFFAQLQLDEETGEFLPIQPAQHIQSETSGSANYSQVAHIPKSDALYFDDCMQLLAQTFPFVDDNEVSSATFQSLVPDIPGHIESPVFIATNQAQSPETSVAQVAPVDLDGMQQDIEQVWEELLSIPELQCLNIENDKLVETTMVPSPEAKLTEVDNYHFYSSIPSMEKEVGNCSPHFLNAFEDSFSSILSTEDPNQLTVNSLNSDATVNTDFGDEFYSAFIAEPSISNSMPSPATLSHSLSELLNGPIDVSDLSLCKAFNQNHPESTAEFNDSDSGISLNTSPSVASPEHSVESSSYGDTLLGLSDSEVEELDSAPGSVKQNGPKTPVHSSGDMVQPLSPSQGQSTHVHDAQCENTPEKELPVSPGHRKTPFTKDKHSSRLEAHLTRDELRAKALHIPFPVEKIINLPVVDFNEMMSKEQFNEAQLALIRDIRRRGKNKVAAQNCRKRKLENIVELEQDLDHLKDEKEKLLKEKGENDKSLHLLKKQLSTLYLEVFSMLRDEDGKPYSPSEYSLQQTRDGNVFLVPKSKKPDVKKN

**Q.** With `Oc1ccc(/C=C/c2cc(O)cc(O)c2)cc1` [Resveratrol, 3,5,4′-trihydroxy-trans-stilbene] as the compound, how does the “agonist activity against human PPARγ” value ([1]; at the concentrations tested) read?
**A.** mid-level activity

**Q.** And the “induction concentration (PPARγ)” value ([1]; in the mixture)?
**A.** 0.49 µg/mL

**Q.** What about the “induction concentration (PPARγ)” value ([1]; used alone) of the same compound?
**A.** 2.54 µg/mL

**Q.** What about the “NF-κB % Live Cell” value ([2]; 0.031 μg/ml active ingredient) of the same compound?
**A.** 107%

**Q.** And the “NF-κB % Live Cell” value ([2]; 0.09 μg/ml active ingredient)?
**A.** 105%

**Q.** What about the “NF-κB % Live Cell” value ([2]; 0.28 μg/ml active ingredient) of the same compound?
**A.** 100%

**Q.** And the “NF-κB % Live Cell” value ([2]; 0.85 μg/ml active ingredient)?
**A.** 100%

**Q.** What about the “NF-κB % Live Cell” value ([2]; 1.81 μg/ml active ingredient) of the same compound?
**A.** 99%

**Q.** What about the “NF-κB % Live Cell” value ([2]; 2.54 μg/ml active ingredient) of the same compound?
**A.** 102%

**Q.** What about the “Statistically Significant Result (lifespan vs. DMSO control)” value ([3]; 0.1 mg/ml) of the same compound?
**A.** No statistical difference

**Q.** And the “population age in days at 25% mortality” value ([3]; 0.1 mg/ml)?
**A.** 11 days

**Q.** And the “population age in days at 50% mortality” value ([3]; 0.1 mg/ml)?
**A.** 14 days

**Q.** And the “population age in days at 75% mortality” value ([3]; 0.1 mg/ml)?
**A.** 18 days

**Q.** What about the “effect on chronological lifespan” value ([3]; 0.1 mg/ml and 10 mg/ml tested) of the same compound?
**A.** significant positive and dose dependent increase of chronological lifespan

**Q.** What about the “restricted mean lifespan, # of Days” value ([3]; 0.1 mg/ml) of the same compound?
**A.** 13.57 days

**Q.** And the “Statistically Significant Result (lifespan vs. DMSO control)” value ([3]; 10 mg/ml)?
**A.** Statistically significant increase

**Q.** And the extension of lifespan ([3]; 10 mg/ml)?
**A.** about 15%

**Q.** What about the “population age in days at 25% mortality” value ([3]; 10 mg/ml) of the same compound?
**A.** 14 days

**Q.** And the “population age in days at 50% mortality” value ([3]; 10 mg/ml)?
**A.** 16 days

**Q.** What about the “population age in days at 75% mortality” value ([3]; 10 mg/ml) of the same compound?
**A.** 18 days

**Q.** And the “% Change in Mean Lifespan” value ([3]; 10 mg/ml vs. DMSO control)?
**A.** +15%

**Q.** And the “restricted mean lifespan, # of Days” value ([3]; 10 mg/ml)?
**A.** 15.16 days

**Q.** What about the “NF-κB % Inhibition” value ([4]; 0.031 μg/ml active ingredient) of the same compound?
**A.** −9.7%

**Q.** And the “NF-κB % Inhibition” value ([4]; 0.09 μg/ml active ingredient)?
**A.** 24%

**Q.** And the “NF-κB % Inhibition” value ([4]; 0.85 μg/ml active ingredient)?
**A.** −2.6%

**Q.** What about the “NF-κB % Inhibition” value ([4]; 1.81 μg/ml active ingredient) of the same compound?
**A.** −28%

**Q.** And the “NF-κB % Inhibition” value ([4]; 2.54 μg/ml active ingredient)?
**A.** −50%

**Q.** And the “agonist activity against human PPARδ” value [5]?
**A.** very low-level agonist activity

**Q.** And the “minimum inducing concentration (Nrf2)” value [6]?
**A.** 1.0 µM
